Laboratory results published in US20110152090A1, “HERBICIDAL COMPOSITIONS COMPRISING FLUFENACET” (Bayer CropScience AG, priority 2009, published 2011).

Tests used:
Format in all cases: in vivo
[1] = tested on: POAAN (Poa annua); assay: Greenhouse trial: PE soil application vs incorporation into the soil (test methods 1, 3); conditions: g of AS/ha: (A) 90, (B) 1200, (C) 90, (D) 300
Experimental: (§1) In the standard design of the test, seeds of various broad-leaved weed and weed grass biotypes (origins) were sown in a 8-13 cm diameter pot filled with natural soil of a standard field soil (loamy silt; non-sterile) and covered with a covering soil layer of about 1 cm. The pots were then cultivated in a greenhouse (12-16 h of light, temperature day 20-22° C., night 15-18° C.) until the time of application. The pots were treated on a laboratory track sprayer with spray liquors comprising the compositions according to the invention, mixtures of the prior art or components used individually. Application of the active compounds or active compound combinations formulated as WG, WP, EC or otherwise was carried out at the appropriate growth stages of the plants. The application rate for the spray application was 100-600 l of water/ha. After the treatment, the plants were returned to the greenhouses.
(§2) About 3 weeks after the application, the soil action or/and foliar action was assessed visually according to a scale of 0-100% in comparison to an untreated comparative group: 0%=no noticeable effect compared to the untreated comparative group; 100%=full effect compared to the untreated comparative group.
(§3) (notes: the term “seeds” also includes vegetative propagation forms such as, for example, rhizome pieces; abbreviations used: h light=hours of illumination, g of AS/ha=gram of active substance per hectare, l/ha=liter per hectare, S=sensitive, R=resistant) • 1. Pre-emergence action against weeds: seeds of various broad-leaved weed and weed grass biotypes (origins) were sown in a 8-13 cm diameter pot filled with natural soil of a standard field soil (loamy silt; non-sterile) and covered with a covering soil layer of about 1 cm. The pots were then cultivated in a greenhouse (12-16 h of light, temperature day 20-22° C., night 15-18° C.) until the time of application. The pots were treated at the BBCH stage 00-10 of the seeds/plants on a laboratory track sprayer with spray liquors comprising the compositions according to the invention, mixtures or components used individually, as WG, WP, EC or other formulations. The application rate for the spray application was 100-600 l of water/ha. After the treatment, the plants were returned to the greenhouses and, when required, treated with fertilizer and watered. • 2. Post-emergence action against weeds: seeds of various broad-leaved weed and weed grass biotypes (origins) were sown in a 8-13 cm diameter pot filled with natural soil of a standard field soil (loamy silt; non-sterile) and covered with a covering soil layer of about 1 cm. The pots were then cultivated in a greenhouse (12-16 h of light, temperature day 20-22° C., night 15-18° C.) until the time of application. The pots were treated at various BBCH stages between 11-25 of the seeds/plants, i.e. generally between two to three weeks after the start of the cultivation, on a laboratory track sprayer with spray liquors comprising the compositions according to the invention, mixtures or components used individually, as WG, WP, EC or other formulations. The application rate for the spray application was 100-600 l of water/ha. After the treatment, the plants were returned to the greenhouses and, when required, treated with fertilizer and watered. • 3. Pre-emergence action against weeds with and without incorporation of active compound: seeds of various broad-leaved weed and weed grass biotypes (origins) were sown in a 8-13 cm diameter pot filled with natural soil of a standard field soil (loamy silt; non-sterile). […]

[2] = tested on: STEME (Stellaria media); assay: as above; conditions: g of AS/ha: (A) 90, (B) 1200, (C) 90, (D) 300
Experimental: as §1, §2, §3

[3] = tested on: TRZAS (Triticum aestivum, summer wheat); assay: Greenhouse trial: crop selectivity, PE soil application vs incorporation (test methods 3, 4); conditions: g of AS/ha: (A) 90, (B) 1200, (C) 90, (D) 300
Experimental: as §1
as §2, with “group. […]” for “group.”

[4] = tested on: APESV (Apera Spica-venti); assay: Greenhouse trial: PO application (test method 2); conditions: g of AS/ha: (A) 120, (B) 1600, (C) 120
Experimental: as §1, §2, §3

[5] = tested on: POAAN (Poa annua); assay: Greenhouse trial: PO application (test method 2); conditions: g of AS/ha: (A) 120, (B) 1600, (C) 120
Experimental: as §1, §2, §3

[6] = tested on: STEME (Stellaria media); assay: Greenhouse trial: PO application (test method 2); conditions: g of AS/ha: (A) 120, (B) 1600, (C) 120
Experimental: as §1, §2, §3

[7] = tested on: HORVS (Hordeum vulgare, summer barley); assay: Greenhouse trial: selective PO action (test method 5); conditions: PO application; g of AS/ha: (A) 120, (B) 1600, (C) 120
Experimental: as §1, §2
(§4) (notes: the term “seeds” also includes vegetative propagation forms such as, for example, rhizome pieces; abbreviations used: h light=hours of illumination, g of AS/ha=gram of active substance per hectare, l/ha=liter per hectare, S=sensitive, R=resistant) • 1. Pre-emergence action against weeds: seeds of various broad-leaved weed and weed grass biotypes (origins) were sown in a 8-13 cm diameter pot filled with natural soil of a standard field soil (loamy silt; non-sterile) and covered with a covering soil layer of about 1 cm. The pots were then cultivated in a greenhouse (12-16 h of light, temperature day 20-22° C., night 15-18° C.) until the time of application. […]

[8] = tested on: AVEFA (Avena fatua); assay: Greenhouse trial: pre-sowing application vs PE application (test method 6)
Experimental: as §1, §2, §3

[9] = tested on: LOLPE (Lolium perenne); assay: as above
Experimental: as §1, §2, §3

[10] = tested on: HORVS (Hordeum vulgare, summer barley); assay: Greenhouse trial: pre-sowing application vs PE application (test method 6), crop, PE part; conditions: PE application; g of AS/ha: (A) 90, (B) 1200, (C) 90
Experimental: as §1, §2, §4

[11] = tested on: TRZAS (Triticum aestivum, summer wheat); assay: Greenhouse trial: pre-sowing application vs PE application (test method 6), crop, pre-sowing part; conditions: application 7 days prior to sowing; g AS/ha: (A) 90, (B) 1200, (C) 90
Experimental: as §1, §2, §4

[12] = tested on: AVEFA (Avena fatua); assay: Greenhouse trial: different irrigation systems (test method 7); conditions: g of AS/ha: (A) 120, (B) 1200, (C) 90
Experimental: as §1, §2, §3

[13] = tested on: LOLPE (Lolium perenne); assay: as above; conditions: g of AS/ha: (A) 120, (B) 1200, (C) 90
Experimental: as §1, §2, §3

[14] = tested on: MATCH (Matricaria chamomilla); assay: as above; conditions: g of AS/ha: (A) 120, (B) 1200, (C) 90
Experimental: as §1, §2, §3

[15] = tested on: LOLPE (Lolium perenne); assay: Greenhouse trial: different soil types (test method 8); conditions: g of AS/ha: (A) 120, (B) 1200, (C) 90
Experimental: as §1, §2, §3

[16] = tested on: MATCH (Matricaria chamomilla); assay: as above; conditions: g of AS/ha: (A) 120, (B) 1200, (C) 90
Experimental: as §1, §2, §3

[17] = tested on: HORVS (Hordeum vulgare, summer barley); assay: Greenhouse trial: different soil types (test method 8), crop; conditions: g AS/ha: (A) 120, (B) 1200, (C) 90
Experimental: as §1, §2, §3

[18] = tested on: LOLSS (Lolium species), sensitive and resistant; assay: Greenhouse trial: resistant biotypes, PE application (test method 9); conditions: g of AS/ha: (A) 90, (B) 1200, (C) 90, iodosulfuron 10
Experimental: as §1, §2, §3

[19] = tested on: MATCH (Matricaria chamomilla), sensitive and resistant; assay: as above; conditions: g of AS/ha: (A) 90, (B) 1200, (C) 90, iodosulfuron 10
Experimental: as §1, §2, §3

[20] = tested on: STEME (Stellaria media), sensitive and resistant; assay: as above; conditions: g of AS/ha: (A) 90, (B) 1200, (C) 90, iodosulfuron 10
Experimental: as §1, §2, §3

[21] = tested on: APESV (Apera Spica-venti); assay: Greenhouse trial: different sowing depths, PE application (test method 10); conditions: g of AS/ha: (A) 90, (B) 1200, (C) 90
Experimental: as §1, §2, §3

[22] = tested on: MATCH (Matricaria chamomilla); assay: as above; conditions: g of AS/ha: (A) 90, (B) 1200, (C) 90
Experimental: as §1, §2, §3

[23] = PE application, g of AS/ha: (A) 90, (B) 1200, (C) 90
[24] = application 7 days prior to sowing, g AS/ha: (A) 90, (B) 1200, (C) 90

**Q.** For O=C(Nc1ccc(F)cc1F)c1cccnc1Oc1cccc(C(F)(F)F)c1 [(C) diflufenican, N-(2,4-difluorophenyl)-2-[3-(trifluoromethyl)phenoxy]-3-pyridinecarboxamide], which “activity POAAN (visual scale 0-100%)” value ([1]; PE application) is on record?
**A.** 70%

**Q.** And the “activity POAAN (visual scale 0-100%)” value ([1]; incorporation into the soil)?
**A.** 92%

**Q.** What about the “activity STEME (visual scale 0-100%)” value ([2]; PE application) of the same compound?
**A.** 50%

**Q.** What about the “activity STEME (visual scale 0-100%)” value ([2]; incorporation into the soil) of the same compound?
**A.** 95%

**Q.** And the “activity on crop TRZAS (visual scale 0-100%)” value ([3]; PE application)?
**A.** 0%

**Q.** What about the “activity on crop TRZAS (visual scale 0-100%)” value ([3]; incorporation into the soil) of the same compound?
**A.** 30%

**Q.** What about the “activity APESV (visual scale 0-100%)” value [4] of the same compound?
**A.** 5%

**Q.** And the “activity POAAN (visual scale 0-100%)” value [5]?
**A.** 5%

**Q.** What about the “activity STEME (visual scale 0-100%)” value [6] of the same compound?
**A.** 30%

**Q.** And the “activity on crop HORVS (visual scale 0-100%)” value [7]?
**A.** 5%

**Q.** What about the “activity AVEFA (visual scale 0-100%)” value [8, 23] of the same compound?
**A.** 30%

**Q.** What about the “activity AVEFA (visual scale 0-100%)” value [8, 24] of the same compound?
**A.** 10%

**Q.** What about the “activity LOLPE (visual scale 0-100%)” value [9, 23] of the same compound?
**A.** 20%

**Q.** What about the “activity LOLPE (visual scale 0-100%)” value [9, 24] of the same compound?
**A.** 10%

**Q.** What about the “activity on crop HORVS (visual scale 0-100%)” value [10] of the same compound?
**A.** 5%

**Q.** What about the “activity on crop TRZAS (visual scale 0-100%)” value [11] of the same compound?
**A.** 5%

**Q.** And the “activity AVEFA (visual scale 0-100%)” value ([12]; irrigation from above)?
**A.** 50%

**Q.** And the “activity AVEFA (visual scale 0-100%)” value ([12]; irrigation from below)?
**A.** 30%

**Q.** And the “activity LOLPE (visual scale 0-100%)” value ([13]; irrigation from above)?
**A.** 20%

**Q.** And the “activity LOLPE (visual scale 0-100%)” value ([13]; irrigation from below)?
**A.** 20%

**Q.** What about the “activity MATCH (visual scale 0-100%)” value ([14]; irrigation from above) of the same compound?
**A.** 0%

**Q.** And the “activity MATCH (visual scale 0-100%)” value ([14]; irrigation from below)?
**A.** 50%

**Q.** And the “activity LOLPE IU soil (visual scale 0-100%)” value ([15]; IU soil)?
**A.** 45%

**Q.** What about the “activity LOLPE IU/EC73 soil (visual scale 0-100%)” value ([15]; IU/EC73 soil) of the same compound?
**A.** 0%

**Q.** And the “activity MATCH IU soil (visual scale 0-100%)” value ([16]; IU soil)?
**A.** 40%

**Q.** What about the “Difference of the soil types, MATCH” value ([16]; IU/EC73 soil vs IU soil) of the same compound?
**A.** −5%

**Q.** What about the “activity MATCH IU/EC73 soil (visual scale 0-100%)” value ([16]; IU/EC73 soil) of the same compound?
**A.** 35%

**Q.** What about the “activity on crop HORVS IU soil (visual scale 0-100%)” value ([17]; IU soil) of the same compound?
**A.** 0%

**Q.** And the “activity on crop HORVS IU/EC73 soil (visual scale 0-100%)” value ([17]; IU/EC73 soil)?
**A.** 0%

**Q.** And the “activity LOLSS resistant (visual scale 0-100%)” value ([18]; resistant biotype)?
**A.** 20%

**Q.** And the “activity LOLSS sensitive (visual scale 0-100%)” value ([18]; sensitive biotype)?
**A.** 80%

**Q.** What about the “activity MATCH resistant (visual scale 0-100%)” value ([19]; resistant biotype) of the same compound?
**A.** 30%

**Q.** What about the “activity MATCH sensitive (visual scale 0-100%)” value ([19]; sensitive biotype) of the same compound?
**A.** 30%

**Q.** What about the “activity STEME resistant (visual scale 0-100%)” value ([20]; resistant biotype) of the same compound?
**A.** 50%

**Q.** What about the “activity STEME sensitive (visual scale 0-100%)” value ([20]; sensitive biotype) of the same compound?
**A.** 70%

**Q.** And the “activity APESV 5 mm (visual scale 0-100%)” value ([21]; sowing depth 5 mm)?
**A.** 5%

**Q.** And the “activity APESV 20 mm (visual scale 0-100%)” value ([21]; sowing depth 20 mm)?
**A.** 5%

**Q.** What about the “activity MATCH 5 mm (visual scale 0-100%)” value ([22]; sowing depth 5 mm) of the same compound?
**A.** 60%

**Q.** And the “activity MATCH 20 mm (visual scale 0-100%)” value ([22]; sowing depth 20 mm)?
**A.** 70%
